According to patent US12295936B2, “Immunomodulating urea azalides” (Zoetis Services LLC, priority 2020, dated 2025):
Read-outs that look alike come from different tables or passages of the source.

Assays:
TNF-α = test: LPS-stimulated whole bovine blood assay, MSD cytokine detection; type: cell-based; settings: LPS-stimulated bovine whole blood, read-out: TNF-α (IC50 μM)
Protocol: (§1) Therefore, a fresh whole bovine blood assay was developed with LPS as a stimulant (TLR-4 agonist) and with IL-1β and TNF-α as the read-out. Compounds of the invention were evaluated against a positive control for their ability to inhibit LPS-induced IL-1β and TNF-α as an overall evaluation of relative potency and modulation of target pathways (Table 6).
In the bovine whole blood in vitro screening assay the inhibition of TNFα as induced by stimulation by lipopolysaccharide (LPS) and as measured by half the maximal inhibitory concentration (IC50) is recognized as the primary biomarker of immunomodulation potency upon pretreatment with the compounds of the invention. IL-1β is a mediator of the inflammation response and is involved in a number of cellular activities including proliferation, differentiation and apoptosis. IL-1β is also released upon cellular stress or cytotoxicity or upon TLR stimulation. In the bovine whole blood assay the stimulation of IL-1β release upon increasing concentration of test compound is seen as a potential cellular toxicity signal as induced by the test compound. In order to estimate a therapeutic index from the in vitro assay a differential between the TNFα IC50 (immunomodulation potency) versus the perceived cellular toxicity concentration (IL-1β release or overstimulation) was utilized.

IL-1β = test: as above; type: cell-based; settings: overstimulation of IL-1β, LPS-stimulated bovine whole blood
Protocol: as §1, with “The effect of multiple cytokines was not easily quantified using single cell types. Therefore,” for “Therefore,”
(§2) In order to correlate RNA sequencing data to cytokine changes the whole blood assay was utilized. […] The enhancement result represents an overall stimulation of cytokine levels due to cellular stress or potential toxicity with increasing concentrations of the compound, representing a typical bell shape response curve for immunomodulatory activity.
In the bovine whole blood in vitro screening assay the inhibition of TNFα as induced by stimulation by lipopolysaccharide (LPS) and as measured by half the maximal inhibitory concentration (IC50) is recognized as the primary biomarker of immunomodulation potency upon pretreatment with the compounds of the invention.

IL-6 = test: as above; type: cell-based; settings: LPS-stimulated bovine whole blood, read-out: IL-6 (IC50 μM)
Source text: as §2

[1] = system: BRD pathogens, M. haemolytica and P. multocida; test: MIC screening panel of BRD pathogens (antibacterial / non-antibacterial); settings: read-out: antibacterial / non-antibacterial (MIC for the BRD pathogens)

| Structure (SMILES) | IC50 (TNF-α; Bos taurus) [µM] | IL-1β OS of LPS (IL-1β) [µM] | IC50 (IL-6; Bos taurus) [µM] | IC50 (TNF-α) [µM] | IC50 (IL-6) [µM] | MIC [1] [µg/mL] |
| --- | --- | --- | --- | --- | --- | --- |
| CC[C@H]1OC(=O)[C@H](C)[C@@H](O)[C@H](C)[C@@H](O[C@@H]2O[C@H](C)C[C@H](N(C)C(=O)Nc3ccccc3)[C@H]2O)[C@](C)(O)C[C@@H](C)CN[C@H](C)[C@@H](O)[C@]1(C)O [Example A-13, 1-((2S,3R,4S,6R)-2-(((2R,3S,4R,5R,8R,10R,11R,12S,13S,14R)-2-ethyl-3,4,10,13-tetrahydroxy-3,5,8,10,12,14-hexamethyl-15-oxo-1-oxa-6-azacyclopentadecan-11-yl)oxy)-3-hydroxy-6-methyltetrahydro-2H-pyran-4-yl)-1-methyl-3-phenylurea] | 200 | >500 | > 500 | – | – | – |
| CCCNC[C@]1(O)[C@H](C)O[C@@H](O[C@H]2[C@H](C)[C@@H](O[C@@H]3O[C@H](C)C[C@H](N(C)C(=O)N(C)c4cncnc4)[C@H]3O)[C@](C)(O)C[C@@H](C)CN[C@H](C)[C@@H](O)[C@](C)(O)[C@@H](CC)OC(=O)[C@@H]2C)C[C@@]1(C)OC [Example H-50, 1-((2S,3R,4S,6R)-2-(((2R,3S,4R,5R,8R,10R,11R,12S,13S,14R)-2-ethyl-3,4,10-trihydroxy-13-(((2R,4R,5S,6S)-5-hydroxy-4-methoxy-4,6-dimethyl-5-((propylamino)methyl)tetrahydro-2H-pyran-2-yl)oxy)-3,5,8,10,12,14-hexamethyl-15-oxo-1-oxa-6-azacyclopentadecan-11-yl)oxy)-3-hydroxy-6-methyltetrahydro-2H-pyran-4-yl)-1,3-dimethyl-3-(pyrimidin-5-yl)urea] | > 250 | >250 | > 250 | – | – | – |
| CCCNC[C@]1(O)[C@H](C)O[C@@H](O[C@H]2[C@H](C)[C@@H](O[C@@H]3O[C@H](C)C[C@H](NCC(C)C)[C@H]3Oc3ccccc3)[C@](C)(O)C[C@@H](C)CN[C@H](C)[C@@H](O)[C@](C)(O)[C@@H](CC)OC(=O)[C@@H]2C)C[C@@]1(C)OC [E-155] | – | 6 | – | 8 | 8 | – |
| CCCN(C[C@]1(O)[C@H](C)O[C@@H](O[C@H]2[C@H](C)[C@@H](O[C@@H]3O[C@H](C)C[C@H](N(C)C(N)=O)[C@H]3O)[C@](C)(O)C[C@@H](C)CN[C@H](C)[C@@H](O)[C@](C)(O)[C@@H](CC)OC(=O)[C@@H]2C)C[C@@]1(C)OC)C(N)=O [Example H-22, 1-((2S,3R,4S,6R)-2-(((2R,3S,4R,5R,8R,10R,11R,12S,13S,14R)-2-ethyl-3,4,10-trihydroxy-13-(((2R,4R,5S,6S)-5-hydroxy-4-methoxy-4,6-dimethyl-5-((1-propylureido)methyl)tetrahydro-2H-pyran-2-yl)oxy)-3,5,8,10,12,14-hexamethyl-15-oxo-1-oxa-6-azacyclopentadecan-11-yl)oxy)-3-hydroxy-6-methyltetrahydro-2H-pyran-4-yl)-1-methylurea] | > 500 | >500 | > 500 | – | – | – |
| CC[C@H]1OC(=O)[C@H](C)[C@@H](O[C@H]2C[C@@](C)(OC)[C@](O)(CN3CC(N(C)C)C3)[C@H](C)O2)[C@H](C)[C@@H](O[C@@H]2O[C@H](C)C[C@H](N(C)C(=O)N(C)c3ccccc3)[C@H]2O)[C@](C)(O)C[C@@H](C)CN[C@H](C)[C@@H](O)[C@]1(C)O [Example J-26, 1-((2S,3R,4S,6R)-2-(((2R,3S,4R,5R,8R,10R,11R,12S,13S,14R)-13-(((2R,4R,5S,6S)-5-((3-(dimethylamino)azetidin-1-yl)methyl)-5-hydroxy-4-methoxy-4,6-dimethyltetrahydro-2H-pyran-2-yl)oxy)-2-ethyl-3,4,10-trihydroxy-3,5,8,10,12,14-hexamethyl-15-oxo-1-oxa-6-azacyclopentadecan-11-yl)oxy)-3-hydroxy-6-methyltetrahydro-2H-pyran-4-yl)-1,3-dimethyl-3-phenylurea] | 122 | 100 | > 250 | – | – | – |
| CCCNC[C@]1(O)[C@H](C)O[C@@H](O[C@H]2[C@H](C)[C@@H](O[C@@H]3O[C@H](C)C[C@H](N(C)C(=O)N(C)Cc4ccccc4)[C@H]3O)[C@](C)(O)C[C@@H](C)CN[C@H](C)[C@@H](O)[C@](C)(O)[C@@H](CC)OC(=O)[C@@H]2C)C[C@@]1(C)OC [Example H-40, 1-benzyl-3-((2S,3R,4S,6R)-2-(((2R,3S,4R,5R,8R,10R,11R,12S,13S,14R)-2-ethyl-3,4,10-trihydroxy-13-(((2R,4R,5S,6S)-5-hydroxy-4-methoxy-4,6-dimethyl-5-((propylamino)methyl)tetrahydro-2H-pyran-2-yl)oxy)-3,5,8,10,12,14-hexamethyl-15-oxo-1-oxa-6-azacyclopentadecan-11-yl)oxy)-3-hydroxy-6-methyltetrahydro-2H-pyran-4-yl)-1,3-dimethylurea] | 45 | 40 | – | – | – | > 64 |
| CCCNC[C@]1(O)[C@H](C)O[C@@H](O[C@H]2[C@H](C)[C@@H](O[C@@H]3O[C@H](C)C[C@H](N(C)C(=O)N(CC(F)(F)F)c4ccccc4)[C@H]3O)[C@](C)(O)C[C@@H](C)CN[C@H](C)[C@@H](O)[C@](C)(O)[C@@H](CC)OC(=O)[C@@H]2C)C[C@@]1(C)OC [Example H-54, 1-((2S,3R,4S,6R)-2-(((2R,3S,4R,5R,8R,10R,11R,12S,13S,14R)-2-ethyl-3,4,10-trihydroxy-13-(((2R,4R,5S,6S)-5-hydroxy-4-methoxy-4,6-dimethyl-5-((propylamino)methyl)tetrahydro-2H-pyran-2-yl)oxy)-3,5,8,10,12,14-hexamethyl-15-oxo-1-oxa-6-azacyclopentadecan-11-yl)oxy)-3-hydroxy-6-methyltetrahydro-2H-pyran-4-yl)-1-methyl-3-phenyl-3-(2,2,2-trifluoroethyl)urea] | 9 | 6 | – | – | – | > 64 |
| CC[C@H]1OC(=O)[C@H](C)[C@@H](O[C@H]2C[C@@](C)(OC)[C@](O)(CNCCN3CCOCC3)[C@H](C)O2)[C@H](C)[C@@H](O[C@@H]2O[C@H](C)C[C@H](N(C)C(=O)N(C)c3ccccc3)[C@H]2O)[C@](C)(O)C[C@@H](C)CN[C@H](C)[C@@H](O)[C@]1(C)O [Example H-42, 1-((2S,3R,4S,6R)-2-(((2R,3S,4R,5R,8R,10R,11R,12S,13S,14R)-2-ethyl-3,4,10-trihydroxy-13-(((2R,4R,5S,6S)-5-hydroxy-4-methoxy-4,6-dimethyl-5-(((2-morpholinoethyl)amino)methyl)tetrahydro-2H-pyran-2-yl)oxy)-3,5,8,10,12,14-hexamethyl-15-oxo-1-oxa-6-azacyclopentadecan-11-yl)oxy)-3-hydroxy-6-methyltetrahydro-2H-pyran-4-yl)-1,3-dimethyl-3-phenylurea] | – | 100 | 177 | – | – | > 64 |
| CCNC[C@]1(O)[C@H](C)O[C@@H](O[C@H]2[C@H](C)[C@@H](O[C@@H]3O[C@H](C)C[C@H](N(C)C(=O)N(C)c4ccccc4)[C@H]3O)[C@](C)(O)C[C@@H](C)CN[C@H](C)[C@@H](O)[C@](C)(O)[C@@H](CC)OC(=O)[C@@H]2C)C[C@@]1(C)OC [Example H-23, 1-((2S,3R,4S,6R)-2-(((2R,3S,4R,5R,8R,10R,11R,12S,13S,14R)-2-ethyl-13-(((2R,4R,5S,6S)-5-((ethylamino)methyl)-5-hydroxy-4-methoxy-4,6-dimethyltetrahydro-2H-pyran-2-yl)oxy)-3,4,10-trihydroxy-3,5,8,10,12,14-hexamethyl-15-oxo-1-oxa-6-azacyclopentadecan-11-yl)oxy)-3-hydroxy-6-methyltetrahydro-2H-pyran-4-yl)-1,3-dimethyl-3-phenylurea] | – | 100 | 193 | – | – | – |
| CC[C@H]1OC(=O)[C@H](C)[C@@H](O[C@H]2C[C@@](C)(OC)[C@](O)(CN3CC(N4CCCCC4)C3)[C@H](C)O2)[C@H](C)[C@@H](O[C@@H]2O[C@H](C)C[C@H](N(C)C(=O)N(C)c3ccccc3)[C@H]2O)[C@](C)(O)C[C@@H](C)CN[C@H](C)[C@@H](O)[C@]1(C)O [Example J-19, 1-((2S,3R,4S,6R)-2-(((2R,3S,4R,5R,8R,10R,11R,12S,13S,14R)-2-ethyl-3,4,10-trihydroxy-13-(((2R,4R,5S,6S)-5-hydroxy-4-methoxy-4,6-dimethyl-5-((3-(piperidin-1-yl)azetidin-1-yl)methyl)tetrahydro-2H-pyran-2-yl)oxy)-3,5,8,10,12,14-hexamethyl-15-oxo-1-oxa-6-azacyclopentadecan-11-yl)oxy)-3-hydroxy-6-methyltetrahydro-2H-pyran-4-yl)-1,3-dimethyl-3-phenylurea] | 19 | 16 | – | – | – | > 64 |
